From ChEMBL document CHEMBL4219272, “Synthesis and biological evaluation of curcumin derivatives modified with α-amino boronic acid as proteasome inhibitors” (Bioorg Med Chem Lett, 2018) come the findings set out here.

In general, IC50 refers to the concentration needed to halve the response being measured.

Series [1] can be described thus: Aqueous solubility of the compound. It counts as physicochemical. The note with it: buffer.
In series [2] the test system is HCT-116. Description: Antiproliferative activity against human HCT116 cells after 72 hrs by MTT assay. It is filed as functional, cell-based. To be noted: HCT-116, 72 h. (In general: Formazan colour is commonly taken as a measure of viable cells.)
Series [3] concerns MDA-MB-231. Nature of the series: Antiproliferative activity against human MDA-MB-231 cells after 72 hrs by MTT assay. It is filed as functional, cell-based. The note with it: MDA-MB-231, 72 h.
Series [4] is described as follows: Antiproliferative activity against human 95-D cells after 72 hrs by MTT assay. It is filed as functional, cell-based.
Series [5] deals with A549. Nature of the series: Antiproliferative activity against human A549 cells after 72 hrs by MTT assay. It is filed as functional, cell-based. To be noted: A549, 72 h.
For series [6], the target named is T1, Proteasome Macropain subunit MB1 (Homo sapiens, UniProt P28074).
T1 sequence (P28074 whole entry): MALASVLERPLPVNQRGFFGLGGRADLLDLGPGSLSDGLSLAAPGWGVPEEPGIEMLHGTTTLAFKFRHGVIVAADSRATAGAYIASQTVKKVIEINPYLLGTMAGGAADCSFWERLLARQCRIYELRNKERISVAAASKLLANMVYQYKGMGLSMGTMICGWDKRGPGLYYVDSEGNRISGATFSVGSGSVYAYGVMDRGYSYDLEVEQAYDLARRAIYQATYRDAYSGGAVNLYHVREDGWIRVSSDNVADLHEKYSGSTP
Nature of the series: Inhibition of chymotrypsin-like activity of 20S proteasome in human K562 cells using Suc-LLVYaminoluciferin as substrate after 2 hrs by luminescence assay. It counts as cell-based.

Series [7] relates to LNCaP. Description: Growth inhibition of human LNCAP cells at 5 to 10 uM after 48 hrs by MTT assay relative to control. It counts as functional.
Series [8] has as its target T1, Proteasome Macropain subunit MB1. Nature of the series: Inhibition of chymotrypsin-like activity of 20S proteasome in human LNCAP cell extract using Suc-LLVYaminoluciferin as substrate after 2 hrs.
Series [9] shares this target. Description: Inhibition of chymotrypsin-like activity of 20S proteasome in human PC3 cell extract using Suc-LLVYaminoluciferin as substrate after 2 hrs.
Series [10] relates to HCT-116. Nature of the series: Antiproliferative activity against human HCT116 cells after 36 hrs by XTT assay. It counts as functional, cell-based. To be noted: HCT-116, 36 h.

Bounds are passed on as bounds.

Regarding `O=C1/C(=C/c2ccc([N+](=O)[O-])cc2)CNC/C1=C\c1ccc([N+](=O)[O-])cc1`, the solubility result in series [1] is “Insoluble”.

Take `O=C1/C(=C/c2ccc(F)cc2)CNC/C1=C\c1ccc(F)cc1`: the solubility entry in series [1] was “Soluble”.

Compound `CCC[C@H](NC(=O)N1C/C(=C\c2ccc(F)cc2)C(=O)/C(=C/c2ccc(F)cc2)C1)B1OC(C)(C)C(C)(C)O1` had an IC50 in series [2] of 785 nM.

Turning to `CC(C)C[C@H](NC(=O)N1C/C(=C\c2ccc(F)cc2)C(=O)/C(=C/c2ccc(F)cc2)C1)B1OC(C)(C)C(C)(C)O1`, the IC50 was 3310 nM in series [3], 1120 nM in series [4], 824 to 854 nM in series [2] and 5050 nM in series [5].

In turn, `CC1(C)OB([C@H](CCc2ccccc2)NC(=O)N2C/C(=C\c3ccc(F)cc3)C(=O)/C(=C/c3ccc(F)cc3)C2)OC1(C)C` returned an IC50 in series [2] of 1040 nM.

In series [2], `CC(C)C[C@H](NC(=O)N1CCN(C(=O)N2C/C(=C\c3ccc(F)cc3)C(=O)/C(=C/c3ccc(F)cc3)C2)CC1)B1OC(C)(C)C(C)(C)O1` gave an IC50 of 1630 nM.

In turn, `CC1(C)OB([C@@H](NC(=O)N2C/C(=C\c3ccc(F)cc3)C(=O)/C(=C/c3ccc(F)cc3)C2)C2CCCCC2)OC1(C)C` had an IC50 in series [2] of 903 nM.

`CC(C)C[C@H](NC(=O)[C@@H](NC(=O)N1C/C(=C\c2ccc(F)cc2)C(=O)/C(=C/c2ccc(F)cc2)C1)C(C)C)B1OC(C)(C)C(C)(C)O1` registered a concentration for half-maximal inhibition (IC50) in series [2] of 534 nM.

Compound `CC(C)C[C@H](NC(=O)[C@H](Cc1ccccc1)NC(=O)N1C/C(=C\c2ccc(F)cc2)C(=O)/C(=C/c2ccc(F)cc2)C1)B1OC(C)(C)C(C)(C)O1` returned an IC50 in series [2] of 201 nM.

As for `CC(C)C[C@H](NC(=O)[C@H](Cc1ccc2ccccc2c1)NC(=O)N1C/C(=C\c2ccc(F)cc2)C(=O)/C(=C/c2ccc(F)cc2)C1)B1OC(C)(C)C(C)(C)O1`, inhibition in series [2] was half-maximal at 172 nM (IC50).

As for `CC(C)C[C@H](NC(=O)[C@H](CC(C)C)NC(=O)N1C/C(=C\c2ccc(F)cc2)C(=O)/C(=C/c2ccc(F)cc2)C1)B1OC(C)(C)C(C)(C)O1`, the IC50 in series [2] is 639 nM.

In series [2], `CC(C)C[C@H](NC(=O)CNC(=O)N1C/C(=C\c2ccc(F)cc2)C(=O)/C(=C/c2ccc(F)cc2)C1)B1OC(C)(C)C(C)(C)O1` registered an IC50 of 375 nM.

On to `CC1(C)OB([C@H](Cc2ccccc2)NC(=O)N2C/C(=C\c3ccc(F)cc3)C(=O)/C(=C/c3ccc(F)cc3)C2)OC1(C)C`, for which the IC50 in series [2] was determined as 599 nM.

Compound `CC(C)(C)[C@H](NC(=O)N1C/C(=C\c2ccc(F)cc2)C(=O)/C(=C/c2ccc(F)cc2)C1)B1OC(C)(C)C(C)(C)O1` displayed an IC50 in [2] of 828 nM.

In series [2], `CC[C@H](NC(=O)N1C/C(=C\c2ccc(F)cc2)C(=O)/C(=C/c2ccc(F)cc2)C1)B1OC(C)(C)C(C)(C)O1` gave an IC50 of 876 nM.

Turning to `CC(C)C[C@H](NC(=O)[C@H](Cc1ccccc1)NC(=O)N1C/C(=C\c2ccc(F)cc2)C(=O)/C(=C/c2ccc(F)cc2)C1)B(O)O`, the IC50 stood at 835 nM in series [6] and 203 nM in [2].

In [2], `CC(C)[C@H](NC(=O)N1C/C(=C\c2ccc(F)cc2)C(=O)/C(=C/c2ccc(F)cc2)C1)B1OC(C)(C)C(C)(C)O1` yielded an IC50 of 908 nM.

Regarding `COc1cc(/C=C/C(=O)CC(=O)/C=C/c2ccc(OC(=O)[C@@H](N)C(C)C)c(OC)c2)ccc1OC(=O)[C@@H](N)C(C)C`, the IC50 in [6] was above 5000 nM; in series [8], 10000 nM; in [9], 10000 nM. Besides, the “growth inhibition (GI)” value in [7] is recorded as 38 - 71%.

As for `COc1cc(/C=C/C(=O)CC(=O)/C=C/c2ccc(O)c(OC)c2)ccc1O` [CURCUMIN], the half-inhibitory concentration (IC50) in series [3] is above 10000 nM; in series [4] it was above 10000 nM; in [2], 10900 nM; in [5], above 10000 nM; in [10], 50000 nM.
